The test system of series [1] is ovary adenocarcinoma line SKOV-3 (ATCC HTB77). In words: XTT proliferation test (cellular dehydrogenase activity), SKOV-3. It is filed as cell-based. As to conditions: Homo sapiens, SK-OV-3, in-vitro cytotoxicity, values determined from 5 substance concentrations, 45 h incubation. The method, then:
(§1) In a proliferation test, the antiproliferative activity of the substance D-43411 was examined using established tumor cell lines. The Cellular Dehydrogenation activity is determined in the test, which enables determination of the vitality of the cell and, indirectly, the cell count. The cell lines used are the human cervical carcinoma cell lines KB/HeLa (ATCC/CCL17), the murine lymphocyte leukemia L1210 (ATCC CCL-219), the human breast adenocarcinoma line MCF7/ATCC HTB22) and the ovary adenocarcinoma line SKOV-3 (ATCC HTB77). These are established cell lines which are very well characterized and were obtained from ATCC and cultured. XTT Test for Cellular Dehydrogenase Activity The adherently growing tumor cell lines HeLa/KB, SKOV-3 and MCF7 and the L1210 leukemia line, which grows in suspension, were cultivated under standard conditions in an incubator with gas inlet at 37° C., 5% CO2 and 95% atmospheric humidity. On Test Day 1, the adherent cells are detached using trypsine/EDTA and pelleted by centrifugation. […] The cell plates are then incubated in the incubator with gas inlet for a further 3 hours, and the optical density (OD490nm) is determined in a photometer. Using the OD490nm obtained, the inhibition is calculated in percent relative to the control. […]
On the technique in general: Formazan colour is commonly taken as a measure of viable cells.

For series [2], the system named is murine lymphocyte leukemia L1210 (ATCC CCL-219). The series is described as follows: XTT proliferation test (cellular dehydrogenase activity), L1210. It is filed as cell-based. As to conditions: Mus musculus, in-vitro cytotoxicity, values determined from 5 substance concentrations, 45 h incubation. The method, then: as §1
Series [3] has as its system human breast adenocarcinoma line MCF7 (ATCC HTB22). In words: XTT proliferation test (cellular dehydrogenase activity), MCF7. As to conditions: test period of 48 h. It is filed as cell-based. The method, then: as §1
In series [4] the test system is human cervical carcinoma cell lines KB/HeLa (ATCC/CCL17). The series is described as follows: XTT proliferation test (cellular dehydrogenase activity), KB/HeLa. It is filed as cell-based. As to conditions: in-vitro cytotoxicity, values determined from 5 substance concentrations, 45 h incubation. On the procedure:
as §1

`COc1cc(OC)cc(N2CCN(C(=O)c3c4ccccc4nc4ccccc34)CC2)c1` [D-43411, 1-(3,5-Dimethoxyphenyl)-4-(9-acridinyl-carbonyl)piperazine]: the melting point is 172 to 175 °C. In series [1], this compound registered an IC50 of under 0.3 ng/mL. The same compound displayed an IC50 in series [2] of under 0.3 ng/mL. The compound further gave an inhibition at 3160 µg/mL in series [3] (at 3.16 mg/ml) of 18%. Moreover, the IC50 in series [3] (in-vitro cytotoxicity, values determined from 5 substance concentrations) was over 3160 ng/mL. In addition, in series [4], the IC50 was under 0.3 ng/mL.

Usually melting point stands for the temperature, or range, at which the solid turns liquid. Usually IC50 stands for the midpoint of a concentration-inhibition curve. Higher therefore signals weaker potency. One may read the inhibition as the change of the read-out against control, counted positive when it falls.
